Laboratory results taken from patent US6458820B1, “Method for preventing or the progression of neuronal damage with pramipexole as a neuroprotective agent” (Pharmacia & Upjohn Company, priority 1994, dated 2002).
pEC50: −log10 of the molar value. “Also recorded” adds a separate entry of the source. Counter-ions that a name gives are not always drawn.

Legend:
[1] = system: cerebellar granular cells; test: L-dopa toxicity in primary cultures of cerebellar granular cells, viability by 14C-aminoisobutyric acid uptake; format: cell-based, Sprague Dawley rats; settings: for % of control* (viability, radioactivity): mean of triplicates +/- S.D.
Experimental: Primary cultures of cerebellar granular cells were prepared from 8-day-old Sprague Dawley rats (Charles River, Portage, Mich.) as described previously (1). […] Glial cell proliferation was prevented by adding cytosine-arabinofuranoside-monophosphate (Sigma, St. […] Experiments were started after cells were 8 days in vitro (8 DIV). Cells were washed with two ml of serum free growth medium. Concentrations of 100X stock solutions of PPX and the (+) enantiomer in serum free growth medium were made. These were delivered to cells by adding 20 ul to cells in growth medium per well. […] Cells were incubated under the above conditions for 24 hrs. […] Cells were solubilized, following a wash, with 0.5% Triton X-100. The solubilized cells were then counted for radioactivity on a scintillation counter. Data was expressed as the mean of triplicates ±S.D. for each point.

[2] = system: nigrostriatal dopamine neurons
Experimental: We examined histologically retrograde degeneration of the dopaminergic nigrostriatal (NS) tract over 28 days in gerbils subjected to a 10-minute period of forebrain ischemia via bilateral carotid occlusion.
The administration of pramipexole was via an initial dose of 1 mg/kg PO 60 minutes after ischemia and again at the end of day 1 followed by twice daily dosing for the next 26 days.

[3] = system: rat model of cerebral infarction; settings: administered before the event; cited from earlier work
[4] = system: gerbil model of global cerebral ischemia; settings: in vivo; cited from earlier work
dopaminergic receptors = test: Battery of binding assays, dopaminergic receptors

## N[C@@H](Cc1ccc(O)c(O)c1)C(=O)O [L-dopa, reference compound]
[1]; 100 uM L-dopa, 24 hrs
  Toxicity of L-dopa: 64.8%

## CCCN[C@H]1CCc2nc(N)sc2C1 [Pramipexole, (−)-enantiomer of 2-amino-6-n-propylamino-4,5,6,7-tetrahydrobenzothiazole-dihydrochloride]
[1]; 1 nM compound, 100 uM L-dopa, 24 hrs
  % of control* (viability, radioactivity): 30.0 +/− 6.5 % of control
[1]; 10 nM compound, 100 uM L-dopa, 24 hrs
  % of control* (viability, radioactivity): 39.2 +/− 9.4 % of control
[1]; 100 nM compound, 100 uM L-dopa, 24 hrs
  % of control* (viability, radioactivity): 64.8 +/− 4.7 % of control
[1]; 300 nM compound, 100 uM L-dopa, 24 hrs
  % of control* (viability, radioactivity): 76.2 +/− 7.3 % of control
[1]; 1000 nM compound, 100 uM L-dopa, 24 hrs
  % of control* (viability, radioactivity): 65.5 +/− 14.8 % of control
[1]; 3000 nM compound, 100 uM L-dopa, 24 hrs
  % of control* (viability, radioactivity): 84.9 +/− 0.6 % of control
[1]; 10000 nM compound, 100 uM L-dopa, 24 hrs
  % of control* (viability, radioactivity): 90.0 +/− 11.5 % of control
[1]; Rattus norvegicus, cerebellar granule cells in culture, L-dopa, read-out: EC50 for blocking L-dopa toxicity
  pEC50: 6.00 to 6.52
[2]; Example 1, 1 mg/kg PO BID beginning at 1 hr after insult, p<0.01 vs vehicle-treated
  attenuation of 28-day post-ischemic loss of NS DA neurons: 36%
[2]; Example 2, twice daily dose of 0.3 mg/kg, threshold effect
  increase in nigrostriatal dopamine neurons compared to vehicle: 14%
[2]; Example 2, twice daily dose of 1 mg/kg PO, p<0.0001 vs vehicle-treated
  improvement in 28 day post-ischemic dopamine neuronal survival: 38%

## CCN(CC)C(=O)N[C@H]1C=C2c3cccc4[nH]cc(c34)C[C@H]2N(C)C1 [Lisuride]
[3]
  brain edema: reduced
  survival time: prolonged

## c1cnc(N2CCN(Cc3ccc4c(c3)OCO4)CC2)nc1 [Piribedil]
[4]
  functional and biochemical parameters: have an effect

## CCCNC1CCc2nc(N)sc2C1.Cl.Cl (single isomer, unassigned; (+)) [(+) enantiomer, (+)-enantiomer of 2-amino-6-n-propylamino-4,5,6,7-tetrahydrobenzothiazole dihydrochloride]
[1]; 10 uM compound, L-dopa treated cells
  viability measurements versus control cells (in words): equal to control cells not exposed to L-dopa
[1]; cerebellar granule cells in culture, dihydrochloride
  neuroprotection against L-dopa toxicity (in words): blocked L-dopa toxicity; also recorded: equally as potent and effective compared to pramipexole
Adrenergic receptors
  binding activity (in words): inactive
Serotonergic receptors
  binding activity (in words): inactive
Dopaminergic receptors
  binding activity (in words): less active
